# In patent US20240024403A1, “Compositions and Methods for Managing Weight” (Unigen, Inc., priority 2012, published 2024):
# Test: High fat diet induced obesity (DIO) mouse model
# Format: in vivo, C57CL/6J mice
# Set-up: Epididymal Fat weight / Retroperitoneal Fat weight / Total Fat (sum of the three fat deposits) / Retroperitoneal Fat / Total Fat / Epididymal Fat, absolute weight / Retroperitoneal Fat, absolute weight: unit not given here
# Conditions: DIO mice; for Weight (total body weight) / Total Weight: in g (unit assumed); for Food Efficiency Ratio (FER): FER = body weight gain (g/day)/food intake (g/day)
# Procedure: C57CL/6J mice aged 4-6 weeks (Korea Research Institute of Bioscience & Biotechnology, Ohchang, Korea) were housed in Polycarbonate cages (five mice per cage) in a room with a 12 hr:12 hr light-dark cycle and an ambient temperature of 24° C. All the mice were fed a commercial chow diet for 1 week after arrival in the animal facility. Mice were then divided into normal and obesity groups and fed with normal diet (ND) and high fat diets (HFD) respectively. The HFD group was divided into multiple treatment groups: a high fat diet vehicle group (HFD), an orlistat (purchased as OTC drug Alli®) positive control treatment group (ORI, 40 mg/kg of animal weight, 2 times/day) and optionally a sibutramine positive control treatment group (10 mg/kg, 1 time/day). The HFD contained 340 g of fat/kg of HFD (310 g lard plus 30 g soybean oil; Harlan Laboratories, USA). The HFD was formulated to provide 60% of the total energy generated by the diet from fat by replacing carbohydrate energy with lard and soybean oil, whereas the normal diet (ND) group was fed a diet providing only 18% of the total diet energy from fat(Harlan Laboratories, USA).
# Body weight was measured once each week and feed intake was measured twice per week. At the end of the experimental period, following a 12 hr. fasting period, the animals were anesthetized with ether, and blood was drawn from the abdominal vein. Liver and kidney and adipose tissues (epididymal, retroperitoneal, perirenal adipose tissues) were removed from each animal, rinsed with physiological saline, and weighed. Serum concentrations of glucose, total cholesterol, triglycerides, and LDL-cholesterol were determined using automatic analyzer (INTEGRA 400, Roche, Germany). Statistical significance of test results was measured using the Student's t-test.
# [1] = oral, week 3, ORI 40 mg/kg, G1 700 mg/kg (Morus:Rosemary 2:5)
# [2] = oral, week 3, ORI 40 mg/kg, G1 1200 mg/kg (Morus:Yerba Mate 1:5)
# [3] = oral, week 4, ORI 40 mg/kg, G1 700 mg/kg (Morus:Rosemary 2:5)
# [4] = oral, week 4, ORI 40 mg/kg, G1 1200 mg/kg (Morus:Yerba Mate 1:5)
# [5] = oral, week 5, ORI 40 mg/kg, G1 700 mg/kg (Morus:Rosemary 2:5)
# [6] = oral, week 5, ORI 40 mg/kg, G1 1200 mg/kg (Morus:Yerba Mate 1:5)
# [7] = oral, week 6, ORI 40 mg/kg, G1 700 mg/kg (Morus:Rosemary 2:5)
# [8] = oral, week 6, ORI 40 mg/kg, G1 1200 mg/kg (Morus:Yerba Mate 1:5)
# [9] = oral, week 7, ORI 40 mg/kg, G1 700 mg/kg (Morus:Rosemary 2:5)
# [10] = oral, week 7, ORI 40 mg/kg, G1 1200 mg/kg (Morus:Yerba Mate 1:5)
# [11] = seven weeks, ORI 40 mg/kg, G1 300 mg/kg (Morus:Magnolia 2:1)
# [12] = seven weeks, ORI 40 mg/kg, G1 1200 mg/kg (Morus:Yerba Mate 1:5)
# [13] = week 1, G1-G4 1000 mg/kg oral gavage two times per day
# [14] = week 2, G1-G4 1000 mg/kg oral gavage two times per day
# [15] = week 3, G1-G4 1000 mg/kg oral gavage two times per day
# [16] = week 4, G1-G4 1000 mg/kg oral gavage two times per day
# [17] = week 5, G1-G4 1000 mg/kg oral gavage two times per day
# [18] = week 6, G1-G4 1000 mg/kg oral gavage two times per day
# [19] = week 7, G1-G4 1000 mg/kg oral gavage two times per day
# [20] = G1-G4 1000 mg/kg oral gavage two times per day
smiles,measurement,setting,value
"CCCCCCCCCCC[C@@H](C[C@@H]1OC(=O)[C@H]1CCCCCC)OC(=O)[C@H](CC(C)C)NC=O [ORI, orlistat]",Body Weight Gain,[1],−5.91
same,Weight (total body weight),[1],36.48
same,Weight Gain,[2],−3.34
same,Total Weight,[2],35.12
same,Body Weight Gain,"oral, week 4, ORI 40 mg/kg, G1 300 mg/kg (Morus:Magnolia 2:1)",−2.61
same,Body Weight Gain,[3],−3.82
same,Weight (total body weight),[3],38.57
same,Weight Gain,[4],−2.61
same,Total Weight,[4],35.84
same,Body Weight Gain,"oral, week 5, ORI 40 mg/kg, G1 300 mg/kg (Morus:Magnolia 2:1)",−2.04
same,Body Weight Gain,[5],−2.33
same,Weight (total body weight),[5],40.07
same,Weight Gain,[6],−2.04
same,Total Weight,[6],36.41
same,Body Weight Gain,"oral, week 6, ORI 40 mg/kg, G1 300 mg/kg (Morus:Magnolia 2:1)",−1.65
same,Body Weight Gain,[7],−1.44
same,Weight (total body weight),[7],40.95
same,Weight Gain,[8],−1.65
same,Total Weight,[8],36.80
same,Body Weight Gain,"oral, week 7, ORI 40 mg/kg, G1 300 mg/kg (Morus:Magnolia 2:1)",−0.07
same,Body Weight Gain,[9],0.60
same,Weight (total body weight),[9],42.99
same,Weight Gain,[10],−0.07
same,Total Weight,[10],38.38
same,Absolute Liver Weight,[11],1.05 g
same,Body Weight Gain,[11],-0.002 g/day
same,Epididymal Fat weight,[11],1.92
same,Food Intake,[11],3.961 g/day
same,Perirenal Fat weight,[11],0.21
same,Retroperitoneal Fat weight,[11],0.55
same,Total Fat (sum of the three fat deposits),[11],2.68
same,Food Efficiency Ratio (FER),"seven weeks, ORI 40 mg/kg, G1 300 mg/kg",0.000
same,Food Intake,[12],3.961 g/day
same,Retroperitoneal Fat,[12],0.55
same,Weight Gain,[12],-0.002 g/day
same,Food Efficiency Ratio (FER),"seven weeks, ORI 40 mg/kg, G1 1200 mg/kg",0.000
same,"Animal Body Weight, week 0","week 0 (baseline), G1-G4 1000 mg/kg oral gavage two times per day",41.44 gram
same,"Animal Body Weight, week 1",[13],40.17 gram
same,"Weight Gain, week 1",[13],−3.97 gram
same,"Animal Body Weight, week 2",[14],36.20 gram
same,"Weight Gain, week 2",[14],−5.37 gram
same,"Animal Body Weight, week 3",[15],34.80 gram
same,"Weight Gain, week 3",[15],−4.08 gram
same,"Animal Body Weight, week 4",[16],36.09 gram
same,"Weight Gain, week 4",[16],−3.11 gram
same,"Animal Body Weight, week 5",[17],37.06 gram
same,"Weight Gain, week 5",[17],−1.26 gram
same,"Animal Body Weight, week 6",[18],38.91 gram
same,"Weight Gain, week 6",[18],0.05 gram
same,"Animal Body Weight, week 7",[19],40.22 gram
same,"Weight Gain, week 7",[19],0.72 gram
same,Weight Gain 2-week,"2-week, Compositions 1, 2 1300 mg/kg/day, 3, 9 1700 mg/kg/day, orlistat 40 mg/kg 2 times/day, sibutramine 10 mg/kg 1 time/day",−5.07
same,Average Feed Intake 2-week,"2-week, doses as in Example 76",2.79
same,Food Efficiency Ratio (FER) 2 weeks,"2 weeks, Mean, Weight Gain (g/day)/Feed Intake (g/day)",−0.223
same,Weight Gain 7-week,"7-week, Compositions 1, 2 1300 mg/kg/day, 3, 9 1700 mg/kg/day, orlistat 40 mg/kg 2 times/day, sibutramine 10 mg/kg 1 time/day",0.56
same,Average Feed Intake 7-week,"7-week, doses as in Example 76",3.09
same,Food Efficiency Ratio (FER) 7 weeks,"7 weeks, Mean, Weight Gain (g/day)/Feed Intake (g/day)",0.005
same,FER (Food efficiency ratio),"Body weight gain (g/day)/Food intake (g/day), G1 = 800 mg/kg orally twice a day",−0.001
same,FER (Food efficiency ratio),"Body weight gain (g/day)/Food intake (g/day), G1 = 1,100 mg/kg orally twice a day",−0.001
same,FER (Food efficiency ratio),"Body weight gain (g/day)/Food intake (g/day), G1 = 1,200 mg/kg orally twice a day",−0.001
same,FER (Food efficiency ratio),FER = Weight Gain (g/day)/Food intake (g/day),0.006
same,Food Efficiency Ratio (FER),"SIB 10 mg/kg, ORI 40 mg/kg, Mutamba extract 32 (G1) 1000 mg/kg, mean",0.013
same,Food Efficiency Ratio (FER),"SIB 10 mg/kg, ORI 40 mg/kg, Mutamba extract 33-2 G1 1000 mg/kg, mean",0.034
same,"Absolute Organ Weight, PeriRenal Fat",[20],0.388 g
same,"Absolute Organ Weight, Retroperitoneal Fat",[20],0.567 g
